Test results: paper PMC11571109, “Covalent Inhibitors of S100A4 Block the Formation of a Pro-Metastasis Non-Muscle Myosin 2A Complex” (Journal of Medicinal Chemistry, 2024)
pIC50: −log10 of the molar value. Several values for one entry are separate records, joined by “and”; a condition that tells them apart may be missing. Equal values may be shown once. Read-outs that look alike come from different tables or passages of the source. Each block holds one molecule with its values, some of them ahead of it.

How the values were obtained:
HeLa = experiment: Cell proliferation assay (CellTiter-Glo), HeLa; type: cell-based; conditions: Homo sapiens, 48 h, supplementary CSV
Procedure: (§1) To further characterize the potency of the phenylproline derivatives on cancer cells, their effect on proliferation has been measured on HeLa and A549 cell lines, which are known to express S100A4.[44],[45] A cell proliferation assay was performed by cultivating cells for 48 h in complete media with various concentrations of inhibitors, up to 30 μM. At the end of the treatment, luminescence was measured after the addition of the CellTiter-Glo reagent (Figure 7A).
(§2) The day before, cells were seeded in a white, cell-culture treated 384-well plates in complete high-glucose DMEM to reach a confluency of 25% on the day of the experiment. The next day, the medium was replaced by complete, high-glucose, phenol-red-free medium, and cells were incubated for 48 h in the presence of an inhibitor or DMSO as a control. Aliquots of the supernatant were harvested, diluted 100 times in 200 mM Tris-HCl, pH 7.3, 10% glycerol, and 1% BSA buffer, and used for cyctotoxicity measurement by using the LDH-Glo cytotoxicity assay kit (Promega). In parallel, the CellTiter-Glo (Promega) reagent was added to the cells to measure cell proliferation. Both experiments were done according to the manufacturer’s recommendations, and the luminescence was quantified using the FSX plate reader (Pherastar).

[1] = Aqueous solubility in PBS (pH 7.4); type: physicochemical; conditions: for solubility: aqueous buffer, PBS pH 7.4, read-out: aq. solubility
From the text: (§3) Selected compounds were screened for aqueous solubility in PBS (pH 7.4), metabolic stability in mouse liver microsomes (MLM) as a measure of clearance, Log D, and permeability. ADME studies reported in this work were independently performed by WuXi AppTec (Shanghai, China). Raw data are provided upon request.

A549 = experiment: Cell proliferation assay (CellTiter-Glo), A549; type: cell-based; conditions: Homo sapiens, 48 h, supplementary CSV
Procedure: as §1, §2

S100A11-AnII = biological target: T1, S100A11-AnII (Homo sapiens, UniProt P31949); experiment: HTRF (TR-FRET) peptide displacement S100A11-AnII; type: binding; conditions: supplementary CSV
T1 construct: made in house; host or cells: E. coli Rosetta (DE3); peptide from LifeTein
T1 sequence (P31949 1-105): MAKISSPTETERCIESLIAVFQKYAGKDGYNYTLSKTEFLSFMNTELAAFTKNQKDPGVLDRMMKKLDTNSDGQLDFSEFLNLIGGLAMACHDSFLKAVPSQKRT
Procedure: Table S4: Compound IDs and SMILES … S30 […]
(§4) Peptide displacement assay development
(§5) addition of an inhibitor.
(§6) Assay was done in 384-well
(§7) After 2 hours of incubation at
(§8) concentration range to avoid the saturation of the signal.

[2] = Metabolic stability in mouse liver microsomes (MLM); type: in vitro ADME; conditions: for MLM, Cli / half-life: mouse liver microsomes; for half-life: read-out: MLM, T1/2
From the text: as §3

Log D = type: physicochemical
From the text: as §3

[3] = Cytotoxicity assay (LDH-Glo), HeLa; type: cell-based; conditions: human, HeLa cells, supplementary CSV, read-out: HeLa Cell toxicity IC50
Procedure: as §1, §2

[4] = GSH reactivity assay (LCMS); type: physicochemical; conditions: 1 mM glutathione (GSH) in HEPES buffer, pH 7.5; read-out: GSH t1/2 (converted)
Procedure: GSH is the most abundant low molecular weight thiol compound in the cell. It protects cells from oxidative damage and the toxicity of xenobiotic electrophiles and maintains redox homeostasis.[43] We speculated that a robust and specific reaction of inhibitors would not be drastically affected by competitive cysteines in the reaction.
50 μM of each compound was incubated at room temperature with 1 mM GSH in 50 mM HEPES, 20 mM NaCl, pH 7.5, and 1.3% DMSO. At each time point, an aliquot was taken and analyzed by LCMS. The percentage of the compound remaining was determined by comparing the area of the peaks of the compound and the GSH adduct. The natural logarithm of the results was fitted to a linear regression, and t1/2 was calculated as t1/2 = ln(2)/–slope.

[5] = Cytotoxicity assay (LDH-Glo), A549; type: cell-based; conditions: human, A549 cells, supplementary CSV, read-out: A549 Cell toxicity IC50
Procedure: as §1, §2

MDCK-MDR1 cell line = experiment: Cell permeability MDR1-MDCK II; type: in vitro ADME
From the text: as §3

[6] = test system: P-glycoprotein (P-gp, MDR1); experiment: Cell permeability MDR1-MDCK II; type: in vitro ADME; conditions: dog
From the text: as §3

S100A4 [7] = biological target: T2, S100A4 (Homo sapiens, UniProt P26447); experiment: Protein labeling detection by mass spectrometry, S100A4; conditions: 10 μM S100A4, 100 μM inhibitor, 1 h
T2 sequence (P26447 whole entry): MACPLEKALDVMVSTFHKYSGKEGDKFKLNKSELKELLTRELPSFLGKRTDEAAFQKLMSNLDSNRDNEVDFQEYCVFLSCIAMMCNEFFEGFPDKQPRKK

S100A4-NMII [8] = biological target: T3, S100A4-NMII (Homo sapiens, UniProt P26447); experiment: cell-based
T3 sequence (P26447 whole entry): as above
From the text: First, we performed IC50 measurements of protein–protein interaction in the presence of inhibitors using NanoBret technology. Briefly, S100A4-HaloTag and NMII-NanoLuc were expressed in 293HEK cells to allow signal detection from donor (NanoLuc) and acceptor (HaLoTag) proximity upon S100A4-NMII interaction.
Assay development was done according to the NanoBRet-NanoGlo detection system manufacturer’s recommendations (Promega) by testing each combination of N- and C-termini of HaloTag and NanoLuc fusion constructs. 293HEK cells were seeded on 6-well plates in complete DMEM media and transfected 6 h later with S100A4-NanoLuc (1.8 μg) and NMII-HaloTag (0.2 μg) constructs using the JetPrime transfection reagent (Polyplus Transfection, Strasbourg, France). After an overnight incubation, cells were resuspended in phenol-red-free, 4% serum media in the presence of the HaloTag NanoBret 618 ligand or DMSO for control. […] NanoBret NanoGlo substrates were added to cells prior to reading the plate with the Pherastar FSX plate reader. The raw Nanobret ratio was calculated by dividing the acceptor emission value (618 nm) by the donor emission value (460 nm) for each sample. The mean NanoBret data were calculated by subtracting the background ratio (no acceptor control) from the sample ratio.

S100A4-NMII [9] = biological target: T3, S100A4-NMII; experiment: HTRF (TR-FRET) peptide displacement S100A4-NMII (MPN peptide); type: binding; set-up: made in house; host or cells: E. coli Rosetta (DE3); peptide from LifeTein; conditions: supplementary CSV
Procedure: as §4, §5, §6, §7, §8

P-gp (MDR1) = experiment: Cell permeability MDR1-MDCK II; type: in vitro ADME; conditions: dog
From the text: as §3

S100B = S100B (Homo sapiens, UniProt P04271); conditions: read-out: IC50 S100B - TRTK peptide displacement; AlphaScreen, duplicate, 50 μM top FAC
Sequence of S100B (P04271 whole entry): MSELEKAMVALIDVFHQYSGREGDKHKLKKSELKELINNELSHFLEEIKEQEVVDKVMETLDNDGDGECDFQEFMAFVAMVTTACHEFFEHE
Procedure: (§9) As a starting point to discover new S100 inhibitors, we used a peptide-displacement assay based on the Amplified Luminescent Proximity Homogeneous Assay (AlphaScreen) of a His-tagged protein interacting with a biotinylated peptide and its ability to be disrupted by small molecule inhibitors of protein interactions.[31] We took advantage of the ability of several S100 proteins to interact with the TRTK-12 peptide.[32] The optimal experimental conditions were determined by performing a protein versus peptide titration for each protein. Serial dilutions of purified 6His-S100 protein (S100A2, S100A4, S100A5, or S100B) were mixed with a serial dilution of a biotinylated TRTK-12 peptide in the presence of 1 mM calcium to allow conformational changes and activation of S100 proteins. The protein–peptide ratio that allows the highest signal to background, without signal saturation, was chosen as the assay condition for each protein to perform the first screening campaign (Figure S1 and Table S1). An internal diversity library of 4 989 small molecules was screened at a single-dose of 50 μM in duplicate in a 384-well plate format. The four S100 protein screening experiments were performed in parallel. […] We also selected the hits based on their ability to show specificity for one protein; compounds showing 50% or more inhibition for other S100 proteins were not selected (Supporting Information).
(§10) A 4 989 compound library was screened using an Alpha-Screen assay. 6His-Tag-S100A2, -S100A4, -S100A5, and -S100B were used in combination with TRTK-Biotin peptide under conditions described previously. […] Twelve wells per plate were used as solvent controls and as a reference for inhibition calculation, which was calculated as inhibition (%) = (1 – (Fsample– Fbackground)/(Fsolvent – Fbackground)) × 100
(§11) The best hits from the single-shot experiment were tested for IC50 determination using the HTRF assay as described above. […] The percentage of inhibition was calculated as described above and was used for IC50 determination. […]

S100A5 = S100A5 (Homo sapiens, UniProt P33763); conditions: read-out: IC50 S100A5 - TRTK peptide displacement; AlphaScreen, duplicate, 50 μM top FAC
Sequence of S100A5 (P33763 whole entry): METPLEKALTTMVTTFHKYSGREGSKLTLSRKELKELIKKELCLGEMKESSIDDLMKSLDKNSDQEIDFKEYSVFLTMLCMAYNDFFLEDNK
Procedure: as §9, §10, §11

S100A2 = S100A2 (Homo sapiens, UniProt P29034); conditions: read-out: IC50 S100A2 - TRTK peptide displacement; AlphaScreen, duplicate, 50 μM top FAC
Sequence of S100A2 (P29034 whole entry): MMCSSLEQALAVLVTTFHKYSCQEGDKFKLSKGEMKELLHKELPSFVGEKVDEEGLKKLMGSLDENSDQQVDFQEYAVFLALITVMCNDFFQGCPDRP
Procedure: as §9, §10, §11

S100A4 [10] = biological target: T2, S100A4; experiment: biochemical
Procedure: As a starting point to discover new S100 inhibitors, we used a peptide-displacement assay based on the Amplified Luminescent Proximity Homogeneous Assay (AlphaScreen) of a His-tagged protein interacting with a biotinylated peptide and its ability to be disrupted by small molecule inhibitors of protein interactions.[31] We took advantage of the ability of several S100 proteins to interact with the TRTK-12 peptide.[32] The optimal experimental conditions were determined by performing a protein versus peptide titration for each protein. Serial dilutions of purified 6His-S100 protein (S100A2, S100A4, S100A5, or S100B) were mixed with a serial dilution of a biotinylated TRTK-12 peptide in the presence of 1 mM calcium to allow conformational changes and activation of S100 proteins. […]
A 4 989 compound library was screened using an Alpha-Screen assay. […] Twelve wells per plate were used as solvent controls and as a reference for inhibition calculation, which was calculated as inhibition (%) = (1 – (Fsample– Fbackground)/(Fsolvent – Fbackground)) × 100
as §11

[11] = MDCK-MDR1, A to B, read-out: MDR1-MDCK II, AB Papp
[12] = MDCK-MDR1, B to A, read-out: MDR1-MDCK II, BA Papp
[13] = read-out: S100A4 IC50 HTRF assay

- pIC50 (HeLa): 5.59
- aqueous solubility (in words) [1]: good solubility
- solubility [1]: 45.7 µg/mL and 115 µM
- pIC50 (A549): 4.66
- pIC50 (S100A11-AnII): < 4.52
- MLM, Cli [2]: 778 μL/min/mg protein
- half-life [2]: 2 min
- logD (Log D): 3.74
- half-life at 50 μM [4]: 5.7 h
- cell permeability MDCK-MDR1 (in words) (MDCK-MDR1 cell line): good permeability without efflux
- Papp [6, 11]: 3.8 ×10⁻⁶ cm/s
- Papp [6, 12]: 34.5 ×10⁻⁶ cm/s
SMILES: O=C(NC1CCCc2ccccc21)[C@H]1C[C@H](c2ccccc2)CN1C(=O)CCl (stereo partly shown) [5b]
- IC50 at 48 h [3]: 29.9 µM
- IC50 at 48 h [5]: 29.7 µM

- pIC50 (HeLa): 5.35
- solubility [1]: 1.69 µg/mL and 3.73 µM
- S100A4 covalent modification pattern (in words) (S100A4 [7]): single shifts
- pIC50 (A549): 4.92
- pIC50 (S100A11-AnII): 4.43
- pIC50 (S100A4-NMII [8]): 4.95
- microsomal stability MLM (in words) [2]: moderate MLM stability
- MLM, Cli [2]: 209 μL/min/mg protein
- half-life [2]: 7 min
- logD (Log D): 4.64
- pIC50 (S100A4-NMII [9]; S100A4 + 1mM GSH IC50 HTRF assay, 1 mM GSH): 5.80
- pIC50 (S100A4-NMII [9]; [13]): 6.11
- half-life at 50 μM [4]: 6.8 h
- Papp (P-gp (MDR1); [11]): 12.6 ×10⁻⁶ cm/s
- Papp (P-gp (MDR1); [12]): 38.8 ×10⁻⁶ cm/s
SMILES: CC(C)C[C@@H](NC(=O)[C@H]1C[C@H](c2ccccc2)CN1C(=O)CCl)c1nc2ccccc2[nH]1 [5c]
- IC50 at 48 h [3]: 29.8 µM
- IC50 at 48 h [5]: 37.7 µM

- pIC50 (S100A11-AnII): < 4.52
- pIC50 (S100A4-NMII [9]; [13]): 5.98
SMILES: CN1CCCC(NC(=O)[C@H]2C[C@H](c3ccccc3)CN2C(=O)CCl)C1=O (stereo partly shown) [5d]

- pIC50 (S100A11-AnII): < 4.52
- pIC50 (S100A4-NMII [9]; [13]): 5.49
SMILES: O=C1Nc2ccccc2C1NC(=O)[C@H]1C[C@H](c2ccccc2)CN1C(=O)CCl (stereo partly shown) [5e]

- pIC50 (S100A11-AnII): < 4.52
- pIC50 (S100A4-NMII [9]; [13]): 5.32
SMILES: COc1cccc(N2CC(NC(=O)[C@H]3C[C@H](c4ccccc4)CN3C(=O)CCl)CC2=O)c1 (stereo partly shown) [5f]

- pIC50 (S100A11-AnII): < 4.52
- pIC50 (S100A4-NMII [9]; [13]): 5.91
SMILES: N#CCc1ccc(NC(=O)[C@H]2C[C@H](c3ccccc3)CN2C(=O)CCl)cc1 [5g]

- pIC50 (S100B): < 4.52
- pIC50 (S100A5): < 4.52
- pIC50 (S100A2): < 4.52
- pIC50 (S100A4 [10]): > 6.00
- pIC50 (S100A4 [10]; read-out: IC50 S100A4 - TRTK peptide displacement, AlphaScreen, duplicate, 50 μM top FAC, 1 mM calcium): 5.91
SMILES: Cc1ccc(S(=O)(=O)/C=C/C#N)cc1 [compound 1]

- pIC50 (S100A11-AnII): 4.47
- pIC50 (S100A4-NMII [9]; [13]): 5.13
SMILES: O=C(Nc1cccc(Cl)c1)[C@H]1C[C@H](c2ccccc2)CN1C(=O)CCl [compound 5]
